Assay results taken from patent publication US20150025120A1, “PYRAZOLE-ALCOHOL COMPOUNDS AND PHARMACEUTICAL USE THEREOF” (JAPAN TOBACCO INC., priority 2013, published 2015).

Key:
[1] = target: T1, hERG current (hERG-transfected HEK293 cells) (Homo sapiens, UniProt Q12809); experiment: hERG whole cell patch clamp test; assay type: cell-based; details: for IC50: whole cell patch clamp, hERG-transfected HEK293 cells
T1 construct: host or cells: HEK293
Method: Using human ether-a-go-go related gene (hERG)-transfected HEK293 cells (Cytomyx Limited), an influence on hERG current was examined according to the whole cell patch clamp technique. The hERG-transfected HEK293 cells were passaged using a CO2 incubator (BNA-111, TABAI ESPEC CORP.) under the set conditions of 37° C., 5% CO2, saturated humidity. Culture containers used were Collagen Type I Coated 75 cm^2 flask (4123-010, AGC TECHNO GLASS CO., Ltd.) and Collagen Type I Coated 35 mm culture dish (4000-010, AGC TECHNO GLASS CO., Ltd.). The culture medium used was E-MEM (Eagle Minimum Essential Medium (Earle's Salts, Nikken biomedical laboratory) added with 10% FCS (Fetal calf serum, BioWest, L.L.C.) and 1% MEM Non-Essential Amino Acids Solution (NEAA, Invitrogen Corporation). Geneticin for the selection of hERG gene expressing cells was added thereto to a concentration of 400 μg/mL. As the cells for the measurement, 3×10^4 hERG-transfected HEK293 cells were plated on a 35 mm culture dish 4 to 7 days before measurement of the hERG current. The culture dish produced for the measurement contained the above-mentioned culture medium without geneticin (Invitrogen Corporation).
The highest evaluation concentration of each compound was determined from the highest concentration at which precipitation was not found in the standard extracellular fluid (NaCl: 140 mmol/L, KCl: 2.5 mmol/L, MgCl2: 2 mmol/L, CaCl2: 2 mmol/L, HEPES: 10 mmol/L, glucose: 10 mmol/L (adjusted to pH 7.4 with Tris-base)). As the application method, each solution to be applied was ejected from a Y-tube having a tip diameter of about 0.25 mm, which was adjacent (about 2 mm) to the cells, and applied to the cells. The ejection rate was about 0.4 mL/min.
The experiment was performed at room temperature under a phase contrast microscope. The 35 mm culture dish plated with the cells was set on a measurement apparatus, and the standard extracellular fluid was continuously applied to the cells from the Y-tube. A glass electrode for the measurement was filled with an intracellular fluid (Potassium Gluconate: 130 mmol/L, KCl: 20 mmol/L, MgCl2: 1 mmol/L, ATP-Mg: 5 mmol/L, EGTA: 3.5 mmol/L, HEPES: 10 mmol/L (adjusted to pH 7.2 with Tris-base)). A conventional whole cell patch clamp method was applied to the cells, and the maintenance electric potential was set to −80 mV. Under a fixed electric potential, the whole cell current was amplified by an amplifier for patch clamp (AXOPATCH-200B, Axon Instruments, Inc.), and the data was loaded into a computer (IMC-P642400, Intermedical Co., Ltd.) using a data acquisition analysis software (pCLAMP 9.2, Axon Instruments, Inc.).
The measurement of the hERG current was performed in the following two steps. In both cases, the hERG current was initiated by giving a command potential (maintenance electric potential −80 mV, prepulse+20 mV, 1.5 sec, test-pulse −50 mV, 1.5 sec).
Step (1): The above-mentioned command potential was given at 0.1 Hz for 2 min.
Step (2): The above-mentioned command potential was subjected to P/3 subtraction of pCLAMP 9.2 to remove leak current. This was repeated three times and an average thereof was taken as hERG current.
Subsequent to step (1), Step (2) was performed (about 3 min), and the maximum tail current obtained by applying a test-pulse to the hERG current obtained by the method of step (2) was taken as hERG current value. Hereafter, the operations of (1) and (2) were alternately repeated until completion of the experiment and the hERG current value was measured.
Stable hERG current value was recorded three times (about 10 min), and the standard extracellular fluid was instantaneously exchanged with each application fluid. The hERG current value was measured three times (about 10 min) in the same manner during perfusion of the application fluid, and the current value obtained by the 3rd measurement was taken as hERG current value after perfusion of the application fluid. […]

[2] = Metabolic stability test in liver microsome (human); assay type: in vitro ADME; details: 5 μM test compound
Method: Human liver microsome (manufactured by Xenotech, H0620, final concentration (after dilution), 0.2 mg protein/mL) was suspended in 100 mM potassium phosphate buffer (pH 7.4, containing β-nicotinamide adenine dinucleotide phosphate: 1.3 mM, D-glucose-6-phosphate: 3.3 mM, magnesium chloride: 3.3 mM, glucose-6-phosphate dehydrogenase: 0.45 U/mL), and further mixed with a test compound dissolved in MeCN/DMSO (95/5) (final concentration 5 μM). The mixture was incubated at 37° C. for 10 min and 60 min, acetonitrile containing formic acid (final concentration 0.1%) was added, and the mixture was centrifuged. The test compound (unmodified) in the supernatant was measured by high performance liquid chromatography/mass spectrometry (LC/MS) (manufactured by Waters, LC: Acquity UPLC, MS:SQ Detector or TQ Detector). The residual ratio (%) was calculated from the obtained measurement value.

[3] = Metabolic stability test in liver microsome (rat); assay type: in vitro ADME

T1 sequence (Q12809 whole entry): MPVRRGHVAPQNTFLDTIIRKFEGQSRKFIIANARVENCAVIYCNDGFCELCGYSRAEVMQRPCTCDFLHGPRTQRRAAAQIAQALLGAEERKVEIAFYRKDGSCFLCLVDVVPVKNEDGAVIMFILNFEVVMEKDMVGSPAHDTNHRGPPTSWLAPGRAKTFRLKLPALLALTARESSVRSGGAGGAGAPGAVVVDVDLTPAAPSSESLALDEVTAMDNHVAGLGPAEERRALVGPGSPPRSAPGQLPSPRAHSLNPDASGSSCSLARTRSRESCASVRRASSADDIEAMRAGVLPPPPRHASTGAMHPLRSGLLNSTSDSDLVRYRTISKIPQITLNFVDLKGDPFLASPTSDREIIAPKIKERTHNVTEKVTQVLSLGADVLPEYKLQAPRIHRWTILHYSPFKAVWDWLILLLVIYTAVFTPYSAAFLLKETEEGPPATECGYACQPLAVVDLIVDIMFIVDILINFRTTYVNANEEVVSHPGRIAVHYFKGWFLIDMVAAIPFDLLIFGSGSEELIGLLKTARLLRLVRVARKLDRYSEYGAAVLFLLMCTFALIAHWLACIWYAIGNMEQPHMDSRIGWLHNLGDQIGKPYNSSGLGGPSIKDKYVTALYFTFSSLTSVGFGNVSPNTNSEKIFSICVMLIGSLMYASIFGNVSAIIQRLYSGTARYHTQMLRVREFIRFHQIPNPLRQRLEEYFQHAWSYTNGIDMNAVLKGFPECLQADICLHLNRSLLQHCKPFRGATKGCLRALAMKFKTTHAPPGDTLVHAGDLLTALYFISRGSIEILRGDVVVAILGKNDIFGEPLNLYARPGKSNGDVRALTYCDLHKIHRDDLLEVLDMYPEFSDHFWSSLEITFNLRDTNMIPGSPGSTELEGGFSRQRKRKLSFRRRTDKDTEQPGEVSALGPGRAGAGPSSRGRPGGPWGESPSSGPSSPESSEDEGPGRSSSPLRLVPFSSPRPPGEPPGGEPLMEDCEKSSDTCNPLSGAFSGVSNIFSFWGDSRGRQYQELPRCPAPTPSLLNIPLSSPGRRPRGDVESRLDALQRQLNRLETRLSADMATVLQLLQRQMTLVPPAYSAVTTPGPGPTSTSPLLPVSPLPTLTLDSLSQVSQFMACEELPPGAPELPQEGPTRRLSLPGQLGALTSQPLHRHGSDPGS

Structure (SMILES) | stability in liver microsome (residual ratio %) ([2]; 10 min) [%] | stability in liver microsome (residual ratio %) ([2]; 60 min) [%] | stability in liver microsome (residual ratio %) ([3]; 10 min) [%] | stability in liver microsome (residual ratio %) ([3]; 60 min) [%] | hERG inhibition rate (%) ([1]; concentration 10 μmol/L) | hERG inhibition rate (%) ([1]; concentration 100 μmol/L) | IC50 [1] [µM] | hERG inhibition rate (%) ([1]; concentration 30 μmol/L) | hERG inhibition rate (%) ([1]; concentration 1 μmol/L)
NC(=O)Cn1cc(-c2cc(OCCC34CC5CC(CC(O)(C5)C3)C4)cc3c2-c2ccccc2[C@]3(O)C(F)(F)F)cn1 [compound (A), 2-(4-{(9R)-9-Hydroxy-2-[2-(3-hydroxyadamantan-1-yl)ethoxy]-9-(trifluoromethyl)-9H-fluoren-4-yl}-1H-pyrazol-1-yl)acetamide, reference compound] | 34.8 | 0.0 | 24.8 | 0.0 | 11.8 |  |  |  | 
CC(C)(O)CCCOc1cc(-c2cnn(CC(C)(C)O)c2)c2c(c1)[C@@](O)(C(F)(F)F)c1ccccc1-2 [compound (4), (9R)-2-(4-hydroxy-4-methylpentyloxy)-4-[1-(2-hydroxy-2-methylpropyl)-1H-pyrazol-4-yl]-9-(trifluoromethyl)-9H-fluoren-9-ol] | 98.8 | 78.9 | 98.9 | 93.5 | 18.6 |  | > 30 | 44.0 | 
Cn1cc(-c2cc(OCC(C)(C)O)cc3c2-c2ccccc2[C@]3(O)C(F)(F)F)cn1 [compound (B), (9R)-2-(2-Hydroxy-2-methylpropoxy)-4-(1-methyl-1H-pyrazol-4-yl)-9-(trifluoromethyl)-9H-fluoren-9-ol, reference compound] | 98.0 | 88.2 | 101.1 | 92.1 | 72.9 |  |  |  | 17.4

The next lines start with results.

stability in liver microsome (residual ratio %) ([2]; 10 min) [%] | stability in liver microsome (residual ratio %) ([2]; 60 min) [%] | stability in liver microsome (residual ratio %) ([3]; 10 min) [%] | stability in liver microsome (residual ratio %) ([3]; 60 min) [%] | Structure (SMILES) | hERG inhibition rate (%) ([1]; concentration 10 μmol/L) | hERG inhibition rate (%) ([1]; concentration 100 μmol/L) | IC50 [1] [µM] | hERG inhibition rate (%) ([1]; concentration 30 μmol/L) | hERG inhibition rate (%) ([1]; concentration 1 μmol/L)
102.1 | 87.8 | 102.0 | 95.4 | C[C@H](O)COc1cc(-c2cnn(CC(C)(C)O)c2)c2c(c1)[C@@](O)(C(F)(F)F)c1ccccc1-2 [compound (1), (9R)-4-[1-(2-hydroxy-2-methylpropyl)-1H-pyrazol-4-yl]-2-((2S)-2-hydroxypropoxy)-9-(trifluoromethyl)-9H-fluoren-9-ol] | 16.2 | 62.3 | 54.4 |  | 
94.9 | 87.9 | 95.1 | 93.6 | CC(C)(O)COc1cc(-c2cnn(CC(C)(C)O)c2)c2c(c1)[C@@](O)(C(F)(F)F)c1ccccc1-2 [compound (2), (9R)-2-(2-hydroxy-2-methylpropoxy)-4-[1-(2-hydroxy-2-methylpropyl)-1H-pyrazol-4-yl]-9-(trifluoromethyl)-9H-fluoren-9-ol] | 13.2 | 67.6 | 47.6 |  | 
